Assay [1] has as its target T1, SMYD3 (Homo sapiens (Human), UniProt Q9H7B4). The assay is described as follows: SMYD3 biochemical assay (SPA, 3H-SAM methylation of MEKK2 protein substrate). The conditions noted are these: read-out: SMYD3 Biochem IC50 (μM)*. In a few lines: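 Methylation of N-terminally GST-tagged MEKK2 by untagged full-length human SMYD3, using 3H-SAM, in pH 8.0 Tris buffer with TCEP, BSG and Tween 20; enzyme and compound sat 30 min at room temperature before substrate addition. Stopped with 100 uM (final) cold SAM; incorporation read by scintillation proximity as dpm/cpm.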

Assay [2] deals with T1, SMYD3. The assay is described as follows: SMYD3 cell assay (Trimethyl-MEKK2 In-Cell Western in 293T/17 cells). The assay is classed as cell-based. The conditions noted are these: 293T/17 cells; read-out: SMYD3 Cell IC50 (μM)*. A digest of the protocol: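 In-Cell Western readout: methanol-fixed cells stained for trimethyl-MEKK2 and flag tag, ratio per well normalized to DMSO and background controls.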

T1 sequence (Q9H7B4 whole entry): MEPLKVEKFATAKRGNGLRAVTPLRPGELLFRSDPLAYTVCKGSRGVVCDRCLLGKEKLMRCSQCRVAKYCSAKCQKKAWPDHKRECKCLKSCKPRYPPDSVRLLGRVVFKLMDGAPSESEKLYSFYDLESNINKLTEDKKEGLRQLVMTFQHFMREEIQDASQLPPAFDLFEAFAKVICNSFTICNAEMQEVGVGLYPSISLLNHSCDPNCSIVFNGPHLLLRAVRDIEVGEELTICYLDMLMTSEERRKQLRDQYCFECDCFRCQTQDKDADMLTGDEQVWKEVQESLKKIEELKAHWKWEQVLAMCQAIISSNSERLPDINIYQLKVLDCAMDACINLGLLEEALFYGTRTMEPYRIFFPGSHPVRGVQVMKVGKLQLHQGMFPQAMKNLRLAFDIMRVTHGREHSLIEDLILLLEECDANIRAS

What is called IC50 is the concentration needed to halve the response being measured. Regarding `COCCNc1ccc(S(=O)(=O)N2CC[C@@H](NC(=O)c3cc(C4CC4)on3)C[C@H]2C)cn1` [compound 457, 5-cyclopropyl-N-((2R,4R)-1-((6-((2-methoxyethyl)amino)pyridin-3-yl)sulfonyl)-2-methylpiperidin-4-yl)isoxazole-3-carboxamide], the half-inhibitory concentration (IC50) in assay [1] and in assay [2] was > 10 µM in each case.

`C[C@@H]1C[C@H](NC(=O)c2cc(C3CC3)on2)CCN1S(=O)(=O)c1ccc(NCCN2CCOCC2)nc1` [compound 459, 5-cyclopropyl-N-((2R,4R)-2-methyl-1-((6-((2-morpholinoethyl)amino)pyridin-3-yl)sulfonyl)piperidin-4-yl)isoxazole-3-carboxamide]: the half-inhibitory concentration (IC50) in assay [1] was 2.36 µM; in assay [2] it was 4.58 µM.

For `C[C@@H]1C[C@H](NC(=O)c2cc(C3CC3)on2)CCN1S(=O)(=O)c1ccc(N(C)CCN2CCOCC2)nc1` [compound 460, 5-cyclopropyl-N-((2R,4R)-2-methyl-1-((6-(methyl(2-morpholinoethyl)amino)pyridin-3-yl)sulfonyl)piperidin-4-yl)isoxazole-3-carboxamide], the half-maximal inhibitory concentration (IC50) in assay [1] and in assay [2] was > 10 µM throughout.

Regarding `C[C@H]1C[C@@H](NC(=O)c2cc(C3CC3)on2)CCN1S(=O)(=O)c1ccc(N(C)CCN)nc1` [compound 461, N-((2S,4S)-1-((6-((2-aminoethyl)(methyl)amino)pyridin-3-yl)sulfonyl)-2-methylpiperidin-4-yl)-5-cyclopropylisoxazole-3-carboxamide], the 50% inhibitory concentration (IC50) came out at 0.0142 µM in assay [1] and 3.85 µM in assay [2].

As for `C[C@@H]1C[C@H](NC(=O)c2cc(C3CC3)on2)CCN1S(=O)(=O)c1ccc(N(C)CCN)nc1` [compound 463, N-((2R,4R)-1-((6-((2-aminoethyl)(methyl)amino)pyridin-3-yl)sulfonyl)-2-methylpiperidin-4-yl)-5-cyclopropylisoxazole-3-carboxamide], the half-maximal inhibitory concentration (IC50) worked out at 0.163 µM in assay [1] and 4.33 µM in assay [2].

As to `C[C@@H]1C[C@H](NC(=O)c2cc(C3CC3)on2)CCN1S(=O)(=O)c1ccc(NCCN)nc1` [compound 464, N-((2R,4R)-1-((6-((2-aminoethyl)amino)pyridin-3-yl)sulfonyl)-2-methylpiperidin-4-yl)-5-cyclopropylisoxazole-3-carboxamide], the half-inhibitory concentration (IC50) was found to be 0.0897 µM in assay [1] and 3.3 µM in assay [2].

As to `CC(C)CNc1ccc(S(=O)(=O)N2C3CCCC2CC(NC(=O)c2cc(C4CC4)on2)C3)cn1` (centres unmarked) [compound 465, 5-cyclopropyl-N-(9-((6-(isobutylamino)pyridin-3-yl)sulfonyl)-9-azabicyclo[3.3.1]nonan-3-yl)isoxazole-3-carboxamide], the IC50 is 3.12 µM in assay [1] and 6.16 µM in assay [2].

For the compound `CNc1ncccc1S(=O)(=O)N1CC[C@H](NC(=O)c2cc(C3CC3)on2)C[C@@H]1C` [compound 467, 5-cyclopropyl-N-((2S,4S)-2-methyl-1-((2-(methylamino)pyridin-3-yl)sulfonyl)piperidin-4-yl)isoxazole-3-carboxamide], the results for the 50% inhibitory concentration (IC50) in assay [1] and in assay [2] were 3.74 µM and 5.76 µM, respectively.

For `C[C@H]1C[C@@H](NC(=O)c2cc(C3CC3)on2)CCN1S(=O)(=O)c1cccnc1NCCN` [compound 475, N-((2S,4S)-1-((2-((2-aminoethyl)amino)pyridin-3-yl)sulfonyl)-2-methylpiperidin-4-yl)-5-cyclopropylisoxazole-3-carboxamide], the IC50 was found to be 0.0865 µM in assay [1] and 1.34 µM in assay [2].

As to `C[C@H]1C[C@@H](NC(=O)c2cc(C3CC3)on2)CCN1S(=O)(=O)c1cccc(C(N)=O)c1` [compound 477, N-((2S,4S)-1-((3-carbamoylphenyl)sulfonyl)-2-methylpiperidin-4-yl)-5-cyclopropylisoxazole-3-carboxamide], the half-inhibitory concentration (IC50) was found to be 0.932 µM in assay [1] and 3.26 µM in assay [2].

The values above are taken from patent US10577363B2, “Substituted piperidine compounds” (EPIZYME, INC., priority 2014, dated 2020).
